In ChEMBL document CHEMBL5154865, “Antibiotic natural product hunanamycin A: Lead identification towards anti-Salmonella agents” (Eur J Med Chem, 2022):
≈ marks a conversion by molar mass, not a printed value. Blank lines part the entries; values can stand above or below the compound they belong to.

Experiments:
Salmonella enterica = test: Antibacterial activity against Salmonella enterica ATCC 6539 assessed as microbial cell viability incubated for 24 hr by quantification of ATP multimode plate reader method; assay type: functional
[1] = Metabolic stability in human liver microsomes measured at 1 uM after 30 mins by LC-MS/MS analysis; assay type: ADME, Microsome; settings: read-out: Stability
[2] = Metabolic stability in mouse liver microsomes measured at 1 uM after 30 mins by LC-MS/MS analysis; assay type: ADME, Microsome; settings: read-out: Stability
[3] = Plasma protein binding in human measured at 150 uM preincubated for 30 mins followed by addition of dialysis buffer measured after 4 hrs by LC-MS/MS analysis; assay type: ADME, cell-free; settings: read-out: PPB (converted)
[4] = Acute toxicity in Swiss albino mouse assessed as lethal dose administered orally daily for 14 days; settings: in vivo, route po, time 14 day
[5] = Stability in human plasma measured after 60 mins LC-MS/MS analysis; assay type: ADME, cell-free; settings: read-out: Stability
[6] = Solubility of compound in DMSO at pH 4.5 after 5 mins measured by HPLC analysis; assay type: physicochemical
[7] = Solubility of compound in DMSO at pH 10.2 after 5 mins measured by HPLC analysis; assay type: physicochemical
[8] = Solubility of compound in DMSO at pH 1.2 after 5 mins measured by HPLC analysis; assay type: physicochemical
[9] = Acute toxicity in Swiss albino mouse assessed as mortality at 2 g/Kg, po administered daily for 14 days; assay type: organism-based; settings: in vivo, 2000 mg/kg, 336 h, time 14 day
[10] = Solubility of compound in DMSO at pH 7.4 after 5 mins measured by HPLC analysis; assay type: physicochemical
[11] = Solubility of compound in DMSO at pH 2.2 after 5 mins measured by HPLC analysis; assay type: physicochemical

MIC (Salmonella enterica): 16 µg/mL (≈ 40.8 µM)
SMILES: CC(C)=CCn1c(=O)c(=O)n(C[C@H](O)[C@H](O)[C@H](O)CO)c2cc(C)c(C)cc21

MIC (Salmonella enterica): 16 µg/mL (≈ 49 µM)
SMILES: Cn1nnc(Cn2c(=O)c(=O)n3c4c(cccc42)C(C)(C)CC3)n1

MIC (Salmonella enterica): 24 µg/mL (≈ 87.5 µM)
SMILES: CC1(C)CCn2c(=O)c(=O)n(CCO)c3cccc1c32

SMILES: Cc1cc2c3c(c1C)C(C)(C)CCn3c(=O)c(=O)n2C[C@H](O)[C@H](O)[C@H](O)CO
remaining at 0.5 h, 1 µM [1]: 100% | MIC (Salmonella enterica): 8 µg/mL (≈ 20.4 µM) | remaining at 0.5 h, 1 µM [2]: 99.6% | fraction unbound at 4 h, 150 µM [3]: 0.412 | LD50 at 336 h [4]: > 2000 mg/kg | remaining at 1 h [5]: 100% | solubility at 5 min [6]: 50 µM (≈ 19.6 µg/mL) | solubility at 5 min [7]: 49.3 µM (≈ 19.3 µg/mL) | solubility at 5 min [8]: 50.8 µM (≈ 19.9 µg/mL) | Activity [9]: Non-Toxic | solubility at 5 min [10]: 49.4 µM (≈ 19.4 µg/mL) | solubility at 5 min [11]: 50.4 µM (≈ 19.8 µg/mL)

MIC (Salmonella enterica): 16 µg/mL (≈ 40.3 µM)
SMILES: CCOC(=O)Cn1cc(Cn2c(=O)c(=O)n3c4c(cccc42)C(C)(C)CC3)nn1

MIC (Salmonella enterica): 16 µg/mL (≈ 48.9 µM)
SMILES: CC1(C)CCn2c(=O)n(Cc3cn(CCO)nn3)c3cccc1c32

MIC (Salmonella enterica): > 32 µg/mL
SMILES: CC1(C)CCn2c(=O)n(Cc3nn[nH]n3)c3cccc1c32

MIC (Salmonella enterica): 32 µg/mL (≈ 66.2 µM)
SMILES: CO[C@@H]1O[C@H](Cn2cc(Cn3c(=O)c(=O)n4c5c(cccc53)C(C)(C)CC4)nn2)[C@H]2OC(=O)O[C@@H]12

MIC (Salmonella enterica): 8 µg/mL (≈ 25.3 µM)
SMILES: CCOC(=O)Cn1c(=O)c(=O)n2c3c(cccc31)C(C)(C)CC2

MIC (Salmonella enterica): 16 µg/mL (≈ 43.9 µM)
SMILES: CC1(C)CCn2c(=O)c(=O)n(C[C@H](O)[C@H](O)[C@H](O)CO)c3cccc1c32

MIC (Salmonella enterica): 32 µg/mL (≈ 85.5 µM)
SMILES: CO[C@@H]1O[C@H](Cn2c(=O)n3c4c(cccc42)C(C)(C)CC3)[C@H]2OC(=O)O[C@@H]12

MIC (Salmonella enterica): 32 µg/mL (≈ 69.9 µM)
SMILES: CO[C@@H]1O[C@H](Cn2cc(Cn3c(=O)c(=O)n4c5c(cccc53)C(C)(C)CC4)nn2)[C@@H](O)[C@H]1O

MIC (Salmonella enterica): 16 µg/mL (≈ 39 µM)
SMILES: CCOC(=O)Cn1c(=O)c(=O)n(C[C@H](O)[C@H](O)[C@H](O)CO)c2cc(C)c(C)cc21

remaining at 0.5 h, 1 µM [1]: 98.9% | MIC (Salmonella enterica): 4 µg/mL (≈ 12.8 µM) | remaining at 0.5 h, 1 µM [2]: 96.1% | fraction unbound at 4 h, 150 µM [3]: 0.0205 | remaining at 1 h [5]: 99.9% | solubility at 5 min [6]: 50.5 µM (≈ 15.8 µg/mL) | solubility at 5 min [7]: 51.8 µM (≈ 16.2 µg/mL) | solubility at 5 min [8]: 51.8 µM (≈ 16.2 µg/mL) | solubility at 5 min [10]: 51.8 µM (≈ 16.2 µg/mL) | solubility at 5 min [11]: 51.2 µM (≈ 16 µg/mL)
SMILES: CC1(C)CCn2c(=O)c(=O)n(Cc3nn[nH]n3)c3cccc1c32

MIC (Salmonella enterica): 16 µg/mL (≈ 57.9 µM)
SMILES: CC1(C)CCn2c(=O)n(CC(O)CO)c3cccc1c32 (configuration not stated)

MIC (Salmonella enterica): 32 µg/mL (≈ 74 µM)
SMILES: Cc1cc2c(cc1C)n(C[C@H](O)[C@H](O)[C@H](O)CO)c(=O)c(=O)n2CC=C1CCCCC1

MIC (Salmonella enterica): 8 µg/mL (≈ 21.7 µM)
SMILES: CCOC(=O)Cn1cc(Cn2c(=O)n3c4c(cccc42)C(C)(C)CC3)nn1

MIC (Salmonella enterica): 8 µg/mL (≈ 18.4 µM)
SMILES: Cc1cc2c(cc1C)n(C[C@H](O)[C@H](O)[C@H](O)CO)c(=O)c(=O)n2CCC1CCCCC1

MIC (Salmonella enterica): 16 µg/mL (≈ 43.9 µM)
SMILES: CC1(C)CCn2c(=O)c(OC[C@H](O)[C@H](O)[C@H](O)CO)nc3cccc1c32

MIC (Salmonella enterica): 16 µg/mL (≈ 69.5 µM)
SMILES: CC1(C)CCn2c(=O)[nH]c(=O)c3cccc1c32

MIC (Salmonella enterica): 16 µg/mL (≈ 48.1 µM)
SMILES: Cc1cc2c3c(c1C)C(C)(C)CCn3c(=O)c(=O)n2CC(O)CO (configuration not stated)

MIC (Salmonella enterica): 32 µg/mL (≈ 76.7 µM)
SMILES: CC1(C)CCn2c(=O)n(Cc3cn(C[C@H](O)[C@H](O)[C@H](O)CO)nn3)c3cccc1c32

remaining at 0.5 h, 1 µM [1]: 90% | MIC (Salmonella enterica): 2 µg/mL (≈ 5.74 µM) | remaining at 0.5 h, 1 µM [2]: 74.3% | fraction unbound at 4 h, 150 µM [3]: 0.338 | remaining at 1 h [5]: 98% | solubility at 5 min [6]: 48.8 µM (≈ 17 µg/mL) | solubility at 5 min [7]: 48.6 µM (≈ 16.9 µg/mL) | solubility at 5 min [8]: 41.2 µM (≈ 14.4 µg/mL) | solubility at 5 min [10]: 48.5 µM (≈ 16.9 µg/mL) | solubility at 5 min [11]: 48.4 µM (≈ 16.8 µg/mL)
SMILES: CO[C@@H]1O[C@H](Cn2c(=O)n3c4c(cccc42)C(C)(C)CC3)[C@@H](O)[C@H]1O

remaining at 0.5 h, 1 µM [1]: 100% | MIC (Salmonella enterica): 4 µg/mL (≈ 11.9 µM) | remaining at 0.5 h, 1 µM [2]: 96.4% | fraction unbound at 4 h, 150 µM [3]: 0.578 | remaining at 1 h [5]: 99.9% | solubility at 5 min [6]: 47.8 µM (≈ 16.1 µg/mL) | solubility at 5 min [7]: 47.6 µM (≈ 16 µg/mL) | solubility at 5 min [8]: 48.2 µM (≈ 16.2 µg/mL) | solubility at 5 min [10]: 47.4 µM (≈ 15.9 µg/mL) | solubility at 5 min [11]: 48 µM (≈ 16.1 µg/mL)
SMILES: CC1(C)CCn2c(=O)n(C[C@H](O)[C@H](O)[C@H](O)CO)c3cccc1c32

MIC (Salmonella enterica): > 32 µg/mL
SMILES: Cc1cc2[nH]c(=O)c(=O)n(C[C@H](O)[C@H](O)[C@H](O)CO)c2cc1C

MIC (Salmonella enterica): 32 µg/mL (≈ 106 µM)
SMILES: CC1(C)CCn2c(=O)c(=O)n(CCCCO)c3cccc1c32

MIC (Salmonella enterica): 24 µg/mL (≈ 83.5 µM)
SMILES: CC1(C)CCn2c(=O)c(=O)n(CC(N)=O)c3cccc1c32

MIC (Salmonella enterica): > 32 µg/mL
SMILES: CC1(C)CCn2c(=O)n(CCCO)c3cccc1c32

MIC (Salmonella enterica): 32 µg/mL (≈ 99.9 µM)
SMILES: CC1(C)CCn2c(=O)c(=O)n(Cc3ccccc3)c3cccc1c32

MIC (Salmonella enterica): 16 µg/mL (≈ 42.5 µM)
SMILES: CO[C@@H]1O[C@H](Cn2c(=O)c(=O)n3c4c(cccc42)C(C)(C)CC3)[C@@H](O)[C@H]1O

MIC (Salmonella enterica): > 32 µg/mL
SMILES: CO[C@@H]1O[C@H](Cn2c(=O)n3c4c(cccc42)C(C)(C)CC3)[C@@H](OC)[C@H]1OC

MIC (Salmonella enterica): 16 µg/mL (≈ 55.5 µM)
SMILES: CC1(C)CCn2c(=O)c(=O)n(CC(=O)O)c3cccc1c32

MIC (Salmonella enterica): 16 µg/mL (≈ 43.9 µM)
SMILES: C=CCn1c(=O)c(=O)n(C[C@H](O)[C@H](O)[C@H](O)CO)c2cc(C)c(C)cc21

MIC (Salmonella enterica): 16 µg/mL (≈ 69.5 µM)
SMILES: CC1(C)CCn2c(=O)c(=O)[nH]c3cccc1c32

MIC (Salmonella enterica): 16 µg/mL (≈ 52.2 µM)
SMILES: CC1(C)CCn2c(=O)n(C[C@H](O)[C@@H](O)CO)c3cccc1c32

MIC (Salmonella enterica): > 32 µg/mL
SMILES: CCn1c(=O)c(=O)n(C[C@H](O)[C@H](O)[C@H](O)CO)c2cc(C)c(C)cc21

MIC (Salmonella enterica): 24 µg/mL (≈ 89.4 µM)
SMILES: C#CCn1c(=O)c2cccc3c2n(c1=O)CCC3(C)C

MIC (Salmonella enterica): > 32 µg/mL
SMILES: CCOC(=O)Cn1cc(Cn2c(=O)c3cccc4c3n(c2=O)CCC4(C)C)nn1

MIC (Salmonella enterica): 32 µg/mL (≈ 107 µM)
SMILES: CCCCCn1c(=O)c(=O)n2c3c(cccc31)C(C)(C)CC2

MIC (Salmonella enterica): 8 µg/mL (≈ 20.4 µM)
SMILES: Cc1cc2nc(OC[C@H](O)[C@H](O)[C@H](O)CO)c(=O)n3c2c(c1C)C(C)(C)CC3

MIC (Salmonella enterica): 24 µg/mL (≈ 74.7 µM)
SMILES: CC1(C)CCn2c(=O)c(=O)n(Cc3ccccn3)c3cccc1c32

MIC (Salmonella enterica): 8 µg/mL (≈ 26.3 µM)
SMILES: CC1(C)CCn2c(=O)c(=O)n(CC(O)CO)c3cccc1c32 (configuration not stated)

SMILES: CC1(C)CCn2c(=O)c(=O)n(CCCO)c3cccc1c32
remaining at 0.5 h, 1 µM [1]: 100% | MIC (Salmonella enterica): 1 µg/mL (≈ 3.47 µM) | remaining at 0.5 h, 1 µM [2]: 96.1% | fraction unbound at 4 h, 150 µM [3]: 0.389 | LD50 at 336 h [4]: > 2000 mg/kg | remaining at 1 h [5]: 82.4% | solubility at 5 min [6]: 50.1 µM (≈ 14.4 µg/mL) | solubility at 5 min [7]: 50.2 µM (≈ 14.5 µg/mL) | solubility at 5 min [8]: 51.2 µM (≈ 14.8 µg/mL) | Activity [9]: Non-Toxic | solubility at 5 min [10]: 50.1 µM (≈ 14.5 µg/mL) | solubility at 5 min [11]: 50.8 µM (≈ 14.7 µg/mL)

MIC (Salmonella enterica): 32 µg/mL (≈ 77 µM)
SMILES: CC1(C)CCn2c(=O)n(Cc3cn([C@@H]4O[C@H](CO)[C@@H](O)[C@H]4O)nn3)c3cccc1c32

MIC (Salmonella enterica): 16 µg/mL (≈ 52.6 µM)
SMILES: CC1(C)CCn2c(=O)c(OCC(O)CO)nc3cccc1c32 (single isomer, unassigned)

MIC (Salmonella enterica): > 32 µg/mL
SMILES: CO[C@@H]1O[C@H](Cn2cc(Cn3c(=O)c4cccc5c4n(c3=O)CCC5(C)C)nn2)[C@@H](O)[C@H]1O (single isomer, unassigned)

MIC (Salmonella enterica): > 32 µg/mL
SMILES: CC1(C)CCn2c(=O)n(Cc3cn([C@@H]4OC(CO)C(O)C4O)nn3)c(=O)c3cccc1c32 (single isomer, unassigned)

MIC (Salmonella enterica): 32 µg/mL (≈ 72.2 µM)
SMILES: CC1(C)CCn2c(=O)c(=O)n(Cc3cn([C@@H]4OC(CO)C(O)C4O)nn3)c3cccc1c32 (single isomer, unassigned)
